Results: publication PMC11848821, “Acrolein-Mediated Conversion of Lysine to Electrophilic Heterocycles for Protein Diversification and Toxicity Profiling” (Journal of the American Chemical Society, 2025)

Experiments:
Type in all cases: binding
lysozyme chicken = molecular target: T1, lysozyme chicken (Gallus gallus, UniProt P00698); test: intact protein MS and MS/MS; details: covalent; lysine adduct (FDP)
T1 construct: gene LYZ

[1] = molecular target: T2, bovine serum albumin (BSA) (Bos taurus, UniProt P02769); test: in-gel fluorescence after thiol-FITC addition to the adduct; details: covalent; lysine adduct (FDP); 12 h
T2 construct: gene ALB; commercial native protein, mature

lysozyme human = molecular target: T3, lysozyme human (Homo sapiens, UniProt P61626); test: intact protein MS and MS/MS; details: covalent; lysine adduct (FDP)
T3 construct: gene LYZ; commercial protein, mature
T3 sequence (P61626 19-148): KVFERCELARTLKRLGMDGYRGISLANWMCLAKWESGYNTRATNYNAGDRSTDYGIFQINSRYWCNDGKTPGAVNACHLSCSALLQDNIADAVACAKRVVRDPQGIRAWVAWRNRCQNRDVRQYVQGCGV

T2 sequence (P02769 25-607): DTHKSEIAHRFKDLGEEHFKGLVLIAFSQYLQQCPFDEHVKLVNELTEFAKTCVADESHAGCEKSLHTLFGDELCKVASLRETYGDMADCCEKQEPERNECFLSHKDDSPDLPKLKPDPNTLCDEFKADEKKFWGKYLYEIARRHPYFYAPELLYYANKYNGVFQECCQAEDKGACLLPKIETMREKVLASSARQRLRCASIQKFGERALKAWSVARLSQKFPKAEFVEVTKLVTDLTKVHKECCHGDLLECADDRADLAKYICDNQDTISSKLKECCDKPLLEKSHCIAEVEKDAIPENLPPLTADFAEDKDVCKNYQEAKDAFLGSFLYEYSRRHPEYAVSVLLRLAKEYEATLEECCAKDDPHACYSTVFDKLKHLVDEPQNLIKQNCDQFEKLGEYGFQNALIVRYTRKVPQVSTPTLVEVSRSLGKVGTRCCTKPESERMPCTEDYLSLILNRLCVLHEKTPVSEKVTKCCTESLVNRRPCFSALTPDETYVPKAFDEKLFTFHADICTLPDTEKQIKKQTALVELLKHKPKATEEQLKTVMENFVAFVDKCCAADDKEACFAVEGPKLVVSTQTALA
T1 sequence (P00698 19-147): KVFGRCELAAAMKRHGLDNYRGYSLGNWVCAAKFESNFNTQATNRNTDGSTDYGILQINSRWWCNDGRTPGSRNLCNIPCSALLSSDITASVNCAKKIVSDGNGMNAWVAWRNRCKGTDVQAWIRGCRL

In the case of `C=CC=O` [acrolein], the “intact protein MS and MS/MS” value (lysozyme chicken) is reported as “ribonuclease A, lysozyme chicken, lysozyme human, β-lactoglobulin, and apo-Transferrin”, the “in-gel fluorescence after thiol-FITC addition to the adduct” value [1] is reported as “formation of FDP-lysine and labeling of Apo-transferrin, BSA, and myoglobin with FITC fluorophore” and the “intact protein MS and MS/MS” value (lysozyme human) is reported as “ribonuclease A, lysozyme chicken, lysozyme human, β-lactoglobulin, and apo-Transferrin”.
